Calls of active or inactive are those of the source. No cut-off for these calls is given here.
What was measured:
[1] = target: Xanthine dehydrogenase/oxidase (Bos taurus, UniProt P80457); experiment: Inhibition of bovine milk xanthine oxidase
[2] = test system: NCI-H1975; format: functional, cell-based; details: Homo sapiens, NCI-H1975, 48 h
[3] = test system: HL-60; format: functional, cell-based; details: Homo sapiens, HL-60, 48 h
[4] = test system: HL-60; experiment: Downregulation of HDAC1 expression level in human HL-60 cells at 0.5 to 2 uM by Western blotting analysis; format: functional, cell-based; details: dose 0.5-2 µM
[5] = test system: HL-60; experiment: Downregulation of HDAC2 expression level in human HL-60 cells at 0.5 to 2 uM by Western blotting analysis; format: functional, cell-based; details: dose 0.5-2 µM
[6] = test system: HL-60; experiment: Downregulation of HDAC3 expression level in human HL-60 cells at 0.5 to 2 uM by Western blotting analysis; format: functional, cell-based; details: dose 0.5-2 µM
[7] = test system: HL-60; experiment: Downregulation of HDAC6 expression level in human HL-60 cells at 0.5 to 2 uM by Western blotting analysis; format: functional, cell-based; details: dose 0.5-2 µM
[8] = test system: MDA-MB-231; experiment: Downregulation of HDAC1 expression level in human MDA-MB-231 cells at 0.5 to 2 uM by Western blotting analysis; format: functional, cell-based; details: dose 0.5-2 µM
[9] = test system: MDA-MB-231; experiment: Downregulation of HDAC3 expression level in human MDA-MB-231 cells at 0.5 to 2 uM by Western blotting analysis; format: functional, cell-based; details: dose 0.5-2 µM
[10] = test system: HL-60; experiment: Upregulation of acetylated histone H3 level in human HL-60 cells by Western blotting analysis; format: functional, cell-based; details: dose 0.5-2 µM
[11] = test system: HL-60; experiment: Upregulation of acetylated alpha tubulin level in human HL-60 cells by Western blotting analysis; format: functional, cell-based; details: dose 0.5-2 µM
[12] = test system: MDA-MB-231; experiment: Upregulation of acetylated histone H3 level in human MDA-MB-231 cells by Western blotting analysis; format: functional, cell-based; details: dose 0.5-2 µM
[13] = test system: MDA-MB-231; experiment: Upregulation of acetylated tubulin level in human MDA-MB-231 cells by Western blotting analysis; format: functional, cell-based; details: dose 0.5-2 µM
[14] = test system: HL-60; experiment: Induction of apoptosis in human HL-60 cells at 0.5 to 2 uM incubated for 48 hrs by propidium iodide staining based flow cytometry analysis; format: functional, cell-based; details: dose 0.5-2 µM
[15] = test system: HL-60; experiment: Downregulation of mTOR expression level in human HL-60 cells at 0.5 to 2 uM by Western blotting analysis; format: functional, cell-based; details: dose 0.5-2 µM
[16] = test system: HL-60; experiment: Induction of apoptosis in human HL-60 cells assessed as morphological changes at 0.5 to 2 uM by DAPI staining based microscopic analysis; format: functional, cell-based; details: dose 0.5-2 µM
[17] = test system: Mitochondrial membrane; experiment: Induction of mitochondrial membrane potential loss in human HL-60 cells at 0.5 to 2 uM by rhodamine 123 staining based flow cytometry analysis; details: dose 0.5-2 µM
[18] = test system: HL-60; experiment: Induction of autophagy in human HL-60 cells assessed as upregulation of LC3-II expression level at 0.5 to 2 uM by Western blotting assay; format: functional, cell-based; details: dose 0.5-2 µM
[19] = test system: MDA-MB-231; experiment: Induction of apoptosis in human MDA-MB-231 cells assessed as G2/M phase arrest at 0.5 to 1 uM incubated for 48 hrs; format: functional, cell-based; details: dose 0.5-1 µM
[20] = test system: MDA-MB-231; experiment: Induction of autophagy in human MDA-MB-231 cells assessed as upregulation of LC3-II expression level at 1 to 4 uM by Western blotting assay; format: functional, cell-based; details: dose 1-4 µM
[21] = test system: HL-60; experiment: Antitumor activity against human HL-60 cells xenografted in ip dosed BALB/c nude mouse model assessed as reduction in tumor volume and measured twice a week for 22 days; format: functional, organism-based; details: dose 50-100 mg/kg, time 22.0 day
[22] = test system: Rattus norvegicus; experiment: Anti-hyperuricemic activity against potassium oxonate-induced hyperuricemia Wistar rat model assessed as decrease in serum uric acid level at 10 mg/kg measured after 14 days; format: functional, organism-based; details: time 14.0 day
[23] = test system: Rattus norvegicus; experiment: Anti-hyperuricemic activity against potassium oxonate-induced hyperuricemia Wistar rat model assessed as decrease in serum creatinine level at 5 to 10 mg/kg measured after 14 days; format: functional, organism-based; details: dose 5-10 mg/kg, time 14.0 day
[24] = test system: Rattus norvegicus; experiment: Anti-hyperuricemic activity against potassium oxonate-induced hyperuricemia Wistar rat model assessed as decrease in blood urea level at 5 to 10 mg/kg measured after 14 days; format: functional, organism-based; details: dose 5-10 mg/kg, time 14.0 day
[25] = test system: Rattus norvegicus; experiment: Anti-hyperuricemic activity against potassium oxonate-induced hyperuricemia Wistar rat model assessed as decrease in number of basophils at 5 mg/kg measured after 14 days; format: functional, organism-based; details: time 14.0 day
[26] = test system: Rattus norvegicus; experiment: Anti-hyperuricemic activity against potassium oxonate-induced hyperuricemia Wistar rat model assessed as decrease in number of eosinophils at 5 mg/kg measured after 14 days; format: functional, organism-based; details: time 14.0 day
[27] = test system: Rattus norvegicus; experiment: Anti-hyperuricemic activity against potassium oxonate-induced hyperuricemia Wistar rat model assessed as increase in neutrophils at 5 mg/kg measured after 14 days; format: functional, organism-based; details: time 14.0 day
[28] = test system: Rattus norvegicus; experiment: Anti-hyperuricemic activity against potassium oxonate-induced hyperuricemia Wistar rat model assessed as increase in lymphocytes at 5 mg/kg measured after 14 days; format: functional, organism-based; details: time 14.0 day
[29] = test system: Rattus norvegicus; experiment: Anti-hyperuricemic activity against potassium oxonate-induced hyperuricemia Wistar rat model assessed as increase in monocytes at 5 mg/kg measured after 14 days; format: functional, organism-based; details: time 14.0 day
[30] = test system: Rattus norvegicus; experiment: Anti-hyperuricemic activity against potassium oxonate-induced hyperuricemia Wistar rat model assessed as increase in RBC at 5 mg/kg measured after 14 days; format: functional, organism-based; details: time 14.0 day
[31] = test system: Rattus norvegicus; experiment: Anti-hyperuricemic activity against potassium oxonate-induced hyperuricemia Wistar rat model assessed as increase in hemoglobin levels at 5 mg/kg measured after 14 days; format: functional, organism-based; details: time 14.0 day
[32] = test system: Rattus norvegicus; experiment: Anti-hyperuricemic activity against potassium oxonate-induced hyperuricemia Wistar rat model assessed as increase in platelet counts at 5 mg/kg measured after 14 days; format: functional, organism-based; details: time 14.0 day
[33] = test system: Rattus norvegicus; experiment: Anti-hyperuricemic activity against potassium oxonate-induced hyperuricemia Wistar rat model assessed as enhancement in complete blood count at 10 mg/kg measured after 14 days; format: functional, organism-based; details: time 14.0 day
[34] = test system: Rattus norvegicus; experiment: Anti-hyperuricemic activity against potassium oxonate-induced hyperuricemia Wistar rat model assessed as improvement in renal condition at 5 mg/kg by measuring decrease in degeneration of tubular cells measured after 14 days by H and E staining based assay; format: functional, organism-based; details: time 14.0 day
[35] = test system: Rattus norvegicus; experiment: Anti-hyperuricemic activity against potassium oxonate-induced hyperuricemia Wistar rat model assessed as improvement in renal condition at 5 mg/kg by measuring decrease in enlargement of glomeruli measured after 14 days by H and E staining based assay; format: functional, organism-based; details: time 14.0 day
[36] = test system: Rattus norvegicus; experiment: Anti-hyperuricemic activity against potassium oxonate-induced hyperuricemia Wistar rat model assessed as improvement in renal condition by measuring decrease in tubular cell swelling at 10 mg/kg measured after 14 days by H and E staining based assay; format: functional, organism-based; details: time 14.0 day
[37] = test system: Rattus norvegicus; experiment: Anti-hyperuricemic activity against potassium oxonate-induced hyperuricemia Wistar rat model assessed as improvement in renal condition by measuring normal glomeruli appearance at 10 mg/kg measured after 14 days by H and E staining based assay; format: functional, organism-based; details: time 14.0 day
[38] = test system: Rattus norvegicus; experiment: Anti-hyperuricemic activity against potassium oxonate-induced hyperuricemia Wistar rat model assessed as improvement in renal condition by measuring normal glomeruli size at 10 mg/kg measured after 14 days by H and E staining based assay; format: functional, organism-based; details: time 14.0 day
[39] = test system: Rattus norvegicus; experiment: Anti-hyperuricemic activity against potassium oxonate-induced hyperuricemia Wistar rat model assessed as reduction in DCT expansion at 10 mg/kg measured after 14 days by H and E staining based assay; format: functional, organism-based; details: time 14.0 day
[40] = test system: Rattus norvegicus; experiment: Anti-hyperuricemic activity against potassium oxonate-induced hyperuricemia Wistar rat model assessed as increase in number of cuboidal cells at 10 mg/kg measured after 14 days by H and E staining based assay; format: functional, organism-based; details: time 14.0 day
[41] = test system: HL-60; experiment: Cytotoxicity against human HL-60 cells incubated for 1 day by MTT assay; format: functional, cell-based; details: HL-60, 24 h
[42] = test system: HH; experiment: Cytotoxicity against human HH cells incubated for 1 day by MTT assay; format: functional, cell-based; details: 24 h
[43] = test system: MOLT-4; experiment: Cytotoxicity against human MOLT-4 cells incubated for 1 day by MTT assay; format: functional, cell-based; details: MOLT-4, 24 h

Chain of Xanthine dehydrogenase/oxidase (P80457 whole entry): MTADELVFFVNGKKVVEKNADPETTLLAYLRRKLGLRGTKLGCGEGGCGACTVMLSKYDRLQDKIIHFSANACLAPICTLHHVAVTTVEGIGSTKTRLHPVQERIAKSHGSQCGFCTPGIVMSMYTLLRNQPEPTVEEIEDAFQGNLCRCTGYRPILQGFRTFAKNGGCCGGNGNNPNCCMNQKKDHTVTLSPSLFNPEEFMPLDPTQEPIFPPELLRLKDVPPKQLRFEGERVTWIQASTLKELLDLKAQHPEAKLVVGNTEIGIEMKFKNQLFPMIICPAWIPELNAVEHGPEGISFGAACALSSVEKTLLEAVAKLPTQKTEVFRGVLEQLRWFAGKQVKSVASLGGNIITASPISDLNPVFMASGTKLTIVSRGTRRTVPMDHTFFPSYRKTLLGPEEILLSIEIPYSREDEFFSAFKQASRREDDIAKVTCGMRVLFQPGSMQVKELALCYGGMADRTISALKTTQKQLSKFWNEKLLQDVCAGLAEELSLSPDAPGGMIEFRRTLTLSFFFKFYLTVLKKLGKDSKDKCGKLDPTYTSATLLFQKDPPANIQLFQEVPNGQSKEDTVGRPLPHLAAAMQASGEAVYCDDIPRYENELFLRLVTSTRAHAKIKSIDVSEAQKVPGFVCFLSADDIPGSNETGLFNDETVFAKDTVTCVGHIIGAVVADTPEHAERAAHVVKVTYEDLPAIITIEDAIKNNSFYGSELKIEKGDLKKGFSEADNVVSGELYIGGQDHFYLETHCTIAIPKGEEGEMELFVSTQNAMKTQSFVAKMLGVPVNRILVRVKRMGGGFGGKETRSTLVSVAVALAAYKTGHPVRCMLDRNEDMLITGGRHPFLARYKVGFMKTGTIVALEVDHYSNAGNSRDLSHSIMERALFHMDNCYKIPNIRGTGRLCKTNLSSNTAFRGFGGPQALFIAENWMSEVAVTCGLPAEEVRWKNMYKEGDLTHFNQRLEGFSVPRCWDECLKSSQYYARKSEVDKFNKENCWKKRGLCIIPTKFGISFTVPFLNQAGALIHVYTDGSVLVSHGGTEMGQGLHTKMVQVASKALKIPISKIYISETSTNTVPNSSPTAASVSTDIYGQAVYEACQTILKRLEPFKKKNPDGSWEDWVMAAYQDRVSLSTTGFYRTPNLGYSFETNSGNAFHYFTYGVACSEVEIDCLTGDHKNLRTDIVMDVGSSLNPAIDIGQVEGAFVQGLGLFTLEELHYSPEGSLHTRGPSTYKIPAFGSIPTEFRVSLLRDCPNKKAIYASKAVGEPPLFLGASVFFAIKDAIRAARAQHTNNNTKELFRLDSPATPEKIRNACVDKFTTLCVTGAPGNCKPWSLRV

Question: For `Cc1nc(-c2ccc(OCC(C)C)c(C#N)c2)sc1C(=O)NCCCCCCC(=O)NO`, which IC50 [1] is on record?
Answer: 6.6 nM

Question: And the IC50 [2]?
Answer: 5440 nM

Question: And the IC50 [3]?
Answer: 706 nM

Question: What about the Activity [4] of the same compound?
Answer: Active; Activity More Potent Than Saha

Question: What about the Activity [5] of the same compound?
Answer: Active; Activity More Potent Than Saha

Question: What about the Activity [6] of the same compound?
Answer: Active; Activity More Potent Than Saha

Question: What about the Activity [7] of the same compound?
Answer: Active; Activity More Potent Than Saha

Question: And the Activity [8]?
Answer: Active

Question: What about the Activity [9] of the same compound?
Answer: Active

Question: And the Activity [10]?
Answer: Dose-dependent-effect

Question: What about the Activity [11] of the same compound?
Answer: Dose-dependent-effect

Question: And the Activity [12]?
Answer: Dose-dependent-effect

Question: What about the Activity [13] of the same compound?
Answer: Dose-dependent-effect

Question: What about the Activity [14] of the same compound?
Answer: Active; Activity Similar To Saha

Question: What about the Activity [15] of the same compound?
Answer: Active

Question: And the Activity [16]?
Answer: Active

Question: And the Activity [17]?
Answer: Active

Question: And the Activity [18]?
Answer: Active

Question: What about the Activity [19] of the same compound?
Answer: Active

Question: What about the Activity [20] of the same compound?
Answer: Active

Question: What about the Activity [21] of the same compound?
Answer: Dose-dependent-effect

Question: What about the Activity [22] of the same compound?
Answer: Active

Question: And the Activity [23]?
Answer: Active

Question: What about the Activity [24] of the same compound?
Answer: Active

Question: What about the Activity [25] of the same compound?
Answer: Active

Question: What about the Activity [26] of the same compound?
Answer: Active

Question: What about the Activity [27] of the same compound?
Answer: Active

Question: And the Activity [28]?
Answer: Active

Question: What about the Activity [29] of the same compound?
Answer: Active

Question: What about the Activity [30] of the same compound?
Answer: Active

Question: What about the Activity [31] of the same compound?
Answer: Active

Question: What about the Activity [32] of the same compound?
Answer: Active

Question: What about the Activity [33] of the same compound?
Answer: Active

Question: And the Activity [34]?
Answer: Active

Question: And the Activity [35]?
Answer: Active

Question: What about the Activity [36] of the same compound?
Answer: Active

Question: And the Activity [37]?
Answer: Active

Question: And the Activity [38]?
Answer: Active

Question: And the Activity [39]?
Answer: Active

Question: And the Activity [40]?
Answer: Active

Question: And the IC50 [41]?
Answer: 706 nM

Question: What about the IC50 [42] of the same compound?
Answer: 1090 nM

Question: What about the IC50 [43] of the same compound?
Answer: 1190 nM

— ChEMBL document CHEMBL6083219, “Rationally designed febuxostat-based hydroxamic acid and its pH-Responsive nanoformulation elicits anti-tumor activity” (Eur J Med Chem, 2024)
